# Laboratory results from ChEMBL document CHEMBL1144951, “Synthesis of N-alkylated derivatives of imidazole as antibacterial agents” (2003).
# Tests used:
# Format in all cases: functional
# [1] = test system: Escherichia coli; experiment: Minimum bacterial concentration (MBC) against Escherichia coli
# [2] = test system: Escherichia coli; experiment: Minimum inhibitory concentration (MIC) against Escherichia coli
# [3] = test system: Staphylococcus aureus; experiment: Minimum inhibitory concentration (MIC) against Staphylococcus aureus
# [4] = test system: Staphylococcus aureus; experiment: Minimum bacterial concentration (MBC) against Staphylococcus aureus
# [5] = test system: Pseudomonas aeruginosa; experiment: Minimum inhibitory concentration (MIC) against Pseudomonas aeruginosa
# [6] = test system: Pseudomonas aeruginosa; experiment: Minimum bacterial concentration (MBC) against Pseudomonas aeruginosa
Molecule,MBC [1] [µg/mL],MIC [2] [µg/mL],MIC [3] [µg/mL],MBC [4] [µg/mL],MIC [5] [µg/mL],MBC [6] [µg/mL]
CCCCn1cc([N+](=O)[O-])nc1C,37,18,17,33,–,–
GENTAMICIN,128,64,2,4,8,12
CCCCCCCCn1ccnc1,90,45,27,45,54,108
CCCCCCn1ccnc1C,50,25,25,50,–,–
CCCCCn1ccnc1,193,97,69,138,138,276
CCCCCCCCCCn1ccnc1,416,208,208,416,416,832
CCCn1ccnc1,220,110,44,198,550,1100
CCCCCCCn1ccnc1,100,50,33,66,83,166
CCCCn1ccnc1,198,99,87,174,248,496
CCCCCCCCCn1ccnc1,39,19,10,19,39,78
CCCCCCn1ccnc1,182,91,46,91,122,243
CCCCCCCCCCCCn1ccnc1,15300,14200,14200,15300,16500,17700
CCCCCCCCn1cc([N+](=O)[O-])nc1C,60,31,24,48,–,–
CCn1ccnc1,960,480,480,960,960,1920
CCCCCCCCCCCCn1ccnc1C,18800,17500,17500,18800,–,–
CCCCCCCCCCCCCn1ccnc1,20000,18800,17500,18800,20000,21200
CCCCCCCCCCCn1ccnc1,2220,1110,1110,2220,2220,4440
CCCCCCCCCCCCCCn1ccnc1,22400,21100,19800,21100,23800,25100
